Assay results: US12227500B2, “Substituted pyrrolo[2,3-b]pyridines for suppressing toxic endoplasmic reticulum stress” (THE TRUSTEES OF COLUMBIA UNIVERSITY IN THE CITY OF NEW YORK, priority 2018, dated 2025)
“And” between values parts separate entries of the source, which are not always exact repeats. Identical values can stand only once. Like-named read-outs stand apart in the source and are kept apart here.

Key:
[1] = In vivo pharmacokinetics, IP injection or oral gavage, 10 mg/kg; set-up: species or system mouse; settings: for Kp at 3 h: brain/plasma, read-out: Brain/plasma ratio at 3 h; for Cmax: plasma
Procedure: Based on its strong performance in the microsome assay, 12k was selected for further pharmacokinetic analysis in vivo. Compounds 1 and 12k were administered to 8 week-old wild-type […] mice at 10 mg/kg through intraperitoneal (IP) injection or oral gavage (OG). Brains and plasma were collected across 4 time points over 24 h for LC-MS/MS analysis.
Compounds 1 and 12k were dissolved in DMSO to 40 mg/mL. For in vivo administration, the DMSO stock was further diluted to 2 mg/mL in a vehicle containing 40% PEG-400 (Sigma) and 55% of a (2-hydroxypropyl)-beta-cyclodextrin solution (20% in nanopure water, Sigma). Compounds were delivered at 10 mg/kg by intraperitoneal injection or oral gavage to 8 week-old male wild-type C57Bl6J mice (Jackson). After 15 min, 3 h, 8 h or 24h, animals were anesthetized with a mixture of ketamine (100 mg/kg) and xylazine (10 mg/kg), then decapitated to collect trunk blood and dissect fresh brain tissue. Blood samples were treated with EDTA solution (50 mM final concentration) to prevent coagulation and centrifuged for 10 min at 845 rcf at 4° to separate plasma. Fresh brains were lysed in 5 volumes of ddH2O.
(§1) Plasma samples were transferred to Eppendorf tubes (50 μL per sample) and diluted with acetonitrile (200 μL). The samples were sonicated for 1 minute followed by centrifugation at 16,000 rpm for 10 minutes. The supernatant was transferred to another Eppendorf tube and the solvent evaporated overnight. The samples were reconstituted in a mixture of 40 μL acetonitrile and 10 μL water transferred to a sample vial with insert, and analyzed by LC-MS.
(§2) Homogenized brain samples (250 μL) were transferred to Eppendorf tubes and diluted with acetonitrile (750 μL). The samples were sonicated for 1 minute followed by centrifugation at 16,000 rpm for 10 minutes. The supernatant (900 μL) was transferred to another Eppendorf tube and the solvent evaporated overnight. The samples were reconstituted in a mixture of 80 μL acetonitrile and 20 μL water, transferred to a sample vial with insert, and analyzed by LC-MS.
(§3) LC-MS analysis was performed on a platform comprising a Thermo Scientific Dionex Ultimate 3000 and a Bruker amaZon SL equipped with an electrospray ionization source controlled by Bruker Hystar 3.2. The compound concentration in each plasma sample was determined using a calibration curve. Chromatographic separation was performed by injecting 10 μL of the sample onto an Agilent Eclipse Plus C18 column (2.1×50 mm, 3.5 μm) maintained at 20° C. The flow rate was maintained at 400 μL/min. The initial flow conditions were 60% solvent A (water containing 0.1% acetic acid) and 40% solvent B (methanol containing 0.1% acetic acid). Solvent B was raised to 60% over 0.25 minutes and to 70% by 6.75 minutes.

[2] = target: T1, panel of 371 human kinases (Homo sapiens, UniProt P09619); test: Radiolabeled ATP kinase assay, panel of 371 kinases (Table S6); type: biochemical; settings: PDGFRb; 0.1 μM; 10 μM ATP; read-out: % Enzyme Activity (relative to DMSO controls)
T1 construct: purchased Reaction Biology Corp
Text: (§4) ; FIG. 38C). […]. Further targeted analyses, such as genetic knock-down or knock-out, may be warranted to parse the role of these additional kinases in our model of neurodegeneration.

[3] = target: T2, panel of 371 human kinases (Homo sapiens, UniProt Q5TCX8); test: as above; type: biochemical; settings: MLK4; 0.1 μM; 10 μM ATP; read-out: % Enzyme Activity (relative to DMSO controls)
T2 construct: purchased Reaction Biology Corp
Text: as §4

[4] = target: T3, panel of 371 human kinases (Homo sapiens, UniProt O95747); test: as above; type: biochemical; settings: OSR1/OXSR1; 0.1 μM; 10 μM ATP; read-out: % Enzyme Activity (relative to DMSO controls)
T3 construct: purchased Reaction Biology Corp
Text: as §4

[5] = target: T4, panel of 371 human kinases (Homo sapiens, UniProt P51956); test: as above; type: biochemical; settings: NEK3; 0.1 μM; 10 μM ATP; read-out: % Enzyme Activity (relative to DMSO controls)
T4 construct: purchased Reaction Biology Corp
Text: as §4

[6] = target: T5, panel of 371 human kinases (Homo sapiens, UniProt P29322); test: as above; type: biochemical; settings: EPHA8; 0.1 μM; 10 μM ATP; read-out: % Enzyme Activity (relative to DMSO controls)
T5 construct: purchased Reaction Biology Corp
Text: as §4

[7] = target: T6, panel of 371 human kinases (Homo sapiens, UniProt P41279); test: as above; type: biochemical; settings: COT1/MAP3K8; 0.1 μM; 10 μM ATP; read-out: % Enzyme Activity (relative to DMSO controls)
T6 construct: purchased Reaction Biology Corp
Text: as §4

[8] = Plasma and brain concentration 30 min after IP injection; type: in vivo, mouse; settings: male, C57BL6/J, mouse, mice, ip dosing, 30 minutes; for Kp at 30 min: brain/plasma, read-out: B/P
Procedure: All studies were performed on 6-week old male C57BL6/J mice that were housed in the Columbia University Medical Center facility in a 12h light/dark cycle with access to food and water ad libitum. All animal procedures were approved by the Columbia University IACUC. […] Animals were weighed and injected once intraperitoneally (IP) at the indicated dose (10 or 20 mg/kg). After 30 min, animals were deeply anesthetized with 2.5% Avertin. Whole blood was collected by cardiac puncture in tubes containing 0.5M EDTA as an anticoagulant, and centrifuged for 10 min at 845 rcf at 4° to isolate plasma. Following cardiac puncture, animals were decapitated and brains were dissected and weighed. Brain samples were homogenized with a glass dounce homogenizer in 5 volumes of ddH2O. Brain and plasma samples were snap frozen in liquid nitrogen and stored at −80° C. before further processing.
as §1, with “The plasma” for “Plasma”
as §2, with “The homogenized” for “Homogenized”
as §3

T6 sequence (P41279 whole entry): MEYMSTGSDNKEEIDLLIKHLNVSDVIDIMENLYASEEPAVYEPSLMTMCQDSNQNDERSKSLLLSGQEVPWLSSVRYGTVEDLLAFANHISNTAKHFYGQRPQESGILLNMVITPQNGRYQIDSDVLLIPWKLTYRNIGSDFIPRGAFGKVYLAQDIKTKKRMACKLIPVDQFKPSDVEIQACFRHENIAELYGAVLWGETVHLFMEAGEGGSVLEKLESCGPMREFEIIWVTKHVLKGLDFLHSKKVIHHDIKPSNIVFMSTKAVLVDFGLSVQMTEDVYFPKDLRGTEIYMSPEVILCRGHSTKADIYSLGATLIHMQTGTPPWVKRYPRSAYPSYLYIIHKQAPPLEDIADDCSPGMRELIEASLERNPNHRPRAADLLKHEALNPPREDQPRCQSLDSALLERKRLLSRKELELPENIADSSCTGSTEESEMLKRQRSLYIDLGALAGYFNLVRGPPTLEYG
T1 sequence (P09619 33-1106): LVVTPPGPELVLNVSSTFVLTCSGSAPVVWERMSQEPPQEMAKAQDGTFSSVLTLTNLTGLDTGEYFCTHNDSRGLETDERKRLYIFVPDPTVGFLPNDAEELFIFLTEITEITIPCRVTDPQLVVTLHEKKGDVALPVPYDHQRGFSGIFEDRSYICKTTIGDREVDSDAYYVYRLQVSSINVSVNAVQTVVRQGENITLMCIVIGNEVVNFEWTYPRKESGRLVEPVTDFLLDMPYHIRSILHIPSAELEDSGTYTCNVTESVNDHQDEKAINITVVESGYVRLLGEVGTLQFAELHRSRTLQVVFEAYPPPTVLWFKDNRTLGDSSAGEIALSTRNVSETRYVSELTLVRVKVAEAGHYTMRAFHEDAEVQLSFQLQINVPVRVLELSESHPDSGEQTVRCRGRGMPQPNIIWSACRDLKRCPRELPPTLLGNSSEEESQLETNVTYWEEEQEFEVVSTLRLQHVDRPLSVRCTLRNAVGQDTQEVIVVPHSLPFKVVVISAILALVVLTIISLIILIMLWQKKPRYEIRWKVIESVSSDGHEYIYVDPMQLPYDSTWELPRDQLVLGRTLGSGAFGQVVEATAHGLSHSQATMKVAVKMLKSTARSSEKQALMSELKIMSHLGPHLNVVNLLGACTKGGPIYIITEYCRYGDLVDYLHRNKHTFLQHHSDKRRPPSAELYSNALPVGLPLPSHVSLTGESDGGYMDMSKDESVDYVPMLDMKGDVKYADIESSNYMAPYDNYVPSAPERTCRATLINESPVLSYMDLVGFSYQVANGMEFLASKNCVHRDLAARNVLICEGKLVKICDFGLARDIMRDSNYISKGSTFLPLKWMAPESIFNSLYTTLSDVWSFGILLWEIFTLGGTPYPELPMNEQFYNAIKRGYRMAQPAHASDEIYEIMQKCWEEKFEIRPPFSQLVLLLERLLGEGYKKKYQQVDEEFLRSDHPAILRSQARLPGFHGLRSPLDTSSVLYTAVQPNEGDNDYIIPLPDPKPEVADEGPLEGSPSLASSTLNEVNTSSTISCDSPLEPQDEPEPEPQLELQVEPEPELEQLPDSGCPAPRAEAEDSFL
T3 sequence (O95747 whole entry): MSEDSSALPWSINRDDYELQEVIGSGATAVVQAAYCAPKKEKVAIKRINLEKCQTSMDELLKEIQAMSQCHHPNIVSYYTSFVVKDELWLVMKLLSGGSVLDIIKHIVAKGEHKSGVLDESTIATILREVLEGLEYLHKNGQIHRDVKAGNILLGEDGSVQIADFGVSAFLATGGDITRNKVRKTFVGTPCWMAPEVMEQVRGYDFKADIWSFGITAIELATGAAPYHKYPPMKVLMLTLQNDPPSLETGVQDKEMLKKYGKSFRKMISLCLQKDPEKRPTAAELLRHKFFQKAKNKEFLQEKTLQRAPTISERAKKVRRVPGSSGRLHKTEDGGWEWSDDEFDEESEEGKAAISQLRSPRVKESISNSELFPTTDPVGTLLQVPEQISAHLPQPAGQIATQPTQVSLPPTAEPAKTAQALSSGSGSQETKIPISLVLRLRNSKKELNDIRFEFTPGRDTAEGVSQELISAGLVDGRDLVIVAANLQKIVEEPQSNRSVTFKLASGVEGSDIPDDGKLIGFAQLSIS
T2 sequence (Q5TCX8 whole entry): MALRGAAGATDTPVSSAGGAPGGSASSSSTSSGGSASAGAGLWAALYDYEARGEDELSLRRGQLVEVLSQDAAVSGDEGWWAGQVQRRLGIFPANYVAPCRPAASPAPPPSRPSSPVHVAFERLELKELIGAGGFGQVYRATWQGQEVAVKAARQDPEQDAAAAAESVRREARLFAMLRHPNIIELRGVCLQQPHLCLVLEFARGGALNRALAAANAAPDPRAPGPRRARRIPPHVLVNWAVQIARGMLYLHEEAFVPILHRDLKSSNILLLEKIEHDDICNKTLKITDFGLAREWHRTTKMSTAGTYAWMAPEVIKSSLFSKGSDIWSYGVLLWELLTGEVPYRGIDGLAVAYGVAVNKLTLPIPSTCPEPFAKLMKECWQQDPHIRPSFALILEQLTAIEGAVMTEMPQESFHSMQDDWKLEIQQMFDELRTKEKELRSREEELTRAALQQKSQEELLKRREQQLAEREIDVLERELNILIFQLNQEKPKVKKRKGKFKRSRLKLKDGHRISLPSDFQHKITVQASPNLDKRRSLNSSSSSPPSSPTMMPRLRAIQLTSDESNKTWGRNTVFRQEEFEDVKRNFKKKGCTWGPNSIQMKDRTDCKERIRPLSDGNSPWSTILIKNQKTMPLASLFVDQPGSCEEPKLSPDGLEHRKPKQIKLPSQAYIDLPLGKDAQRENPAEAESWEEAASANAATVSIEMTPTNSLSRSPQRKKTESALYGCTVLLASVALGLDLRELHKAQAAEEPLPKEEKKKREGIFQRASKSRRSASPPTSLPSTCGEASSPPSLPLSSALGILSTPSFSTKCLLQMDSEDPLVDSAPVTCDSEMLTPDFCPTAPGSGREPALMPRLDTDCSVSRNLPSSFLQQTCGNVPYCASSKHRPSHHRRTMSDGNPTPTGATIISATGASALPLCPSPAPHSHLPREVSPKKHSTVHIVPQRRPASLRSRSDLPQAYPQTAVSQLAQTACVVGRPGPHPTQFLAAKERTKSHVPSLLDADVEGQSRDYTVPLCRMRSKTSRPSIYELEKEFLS
T4 sequence (P51956 whole entry): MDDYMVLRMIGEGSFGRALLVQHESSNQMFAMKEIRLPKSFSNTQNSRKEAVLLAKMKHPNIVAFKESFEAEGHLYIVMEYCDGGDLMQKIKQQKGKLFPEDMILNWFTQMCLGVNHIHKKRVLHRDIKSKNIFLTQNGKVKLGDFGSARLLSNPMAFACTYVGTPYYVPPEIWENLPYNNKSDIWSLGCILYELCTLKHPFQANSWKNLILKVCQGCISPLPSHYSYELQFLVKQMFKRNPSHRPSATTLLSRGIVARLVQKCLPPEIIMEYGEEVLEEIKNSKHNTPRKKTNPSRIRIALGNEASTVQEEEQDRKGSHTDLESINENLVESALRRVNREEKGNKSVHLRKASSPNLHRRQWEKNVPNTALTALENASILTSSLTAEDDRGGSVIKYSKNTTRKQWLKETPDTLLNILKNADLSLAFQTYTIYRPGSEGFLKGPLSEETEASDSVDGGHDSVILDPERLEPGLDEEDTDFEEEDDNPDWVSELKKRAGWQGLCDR
T5 sequence (P29322 28-1005): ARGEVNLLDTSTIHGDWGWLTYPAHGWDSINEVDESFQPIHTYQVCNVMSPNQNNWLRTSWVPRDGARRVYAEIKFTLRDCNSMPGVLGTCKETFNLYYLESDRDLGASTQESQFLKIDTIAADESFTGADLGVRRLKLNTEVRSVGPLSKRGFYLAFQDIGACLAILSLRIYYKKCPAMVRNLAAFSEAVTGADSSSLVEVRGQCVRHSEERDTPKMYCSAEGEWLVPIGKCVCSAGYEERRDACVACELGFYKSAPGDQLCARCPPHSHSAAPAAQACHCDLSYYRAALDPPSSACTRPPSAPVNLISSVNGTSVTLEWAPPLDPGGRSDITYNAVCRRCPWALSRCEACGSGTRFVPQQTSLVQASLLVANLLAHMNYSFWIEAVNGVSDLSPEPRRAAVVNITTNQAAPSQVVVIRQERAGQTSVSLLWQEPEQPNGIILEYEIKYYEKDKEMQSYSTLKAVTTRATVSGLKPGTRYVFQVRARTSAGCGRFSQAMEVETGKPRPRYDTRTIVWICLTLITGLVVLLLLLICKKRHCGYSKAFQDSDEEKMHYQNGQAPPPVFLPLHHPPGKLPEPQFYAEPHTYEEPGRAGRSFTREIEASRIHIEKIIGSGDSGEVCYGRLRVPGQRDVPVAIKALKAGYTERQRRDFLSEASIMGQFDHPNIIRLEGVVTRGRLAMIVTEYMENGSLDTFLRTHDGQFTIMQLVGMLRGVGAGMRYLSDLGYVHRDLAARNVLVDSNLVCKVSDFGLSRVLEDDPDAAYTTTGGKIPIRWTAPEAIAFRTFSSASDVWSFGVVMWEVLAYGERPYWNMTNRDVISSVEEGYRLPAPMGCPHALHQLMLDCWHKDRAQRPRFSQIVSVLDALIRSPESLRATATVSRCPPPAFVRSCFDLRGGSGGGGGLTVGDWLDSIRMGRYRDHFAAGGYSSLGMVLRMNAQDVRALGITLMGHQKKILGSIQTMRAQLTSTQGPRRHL

Structure (SMILES): CN1CCN(Cc2ccc(-c3cnc4[nH]cc(-c5ccc6[nH]ccc6c5)c4c3)cc2)CC1 [Compound 1, 3-(1H-Indol-5-yl)-5-(4-((4-methylpiperazin-1-yl)methyl)phenyl)-1H-pyrrolo[2,3-b]pyridine, reference compound]
- Oral bioavailability (% F) based on plasma measurements in IP vs. OG-treated animals [1]: 46%
- Brain AUC ([1]; IP): 1.568 µg·h/mL
- Brain mean Cmax ([1]; IP): 208.83 µg/kg
- Plasma AUC ([1]; IP): 7.328 µg·h/mL
- Brain AUC ([1]; OG): 0.5672 µg·h/mL
- Brain mean Cmax ([1]; OG): 83.35 µg/kg
- Plasma AUC ([1]; OG): 3.401 µg·h/mL
- Kp at 3 h ([1]; male, mouse, ip): 0.25
- Kp at 3 h ([1]; male, mouse, oral, OG): 0.18
- Cmax ([1]; male, mouse, ip): 0.972 µg/mL
- Cmax ([1]; male, mouse, po, OG): 0.476 µg/mL
- remaining activity at 0.1 µM [2]: 94.2%
- remaining activity at 0.1 µM [3]: 99.9%
- remaining activity at 0.1 µM [4]: 102%
- remaining activity at 0.1 µM [5]: 88.3%
- remaining activity at 0.1 µM [6]: 90.8%
- remaining activity at 0.1 µM [7]: 101%
- Kp at 30 min ([8]; 10 mg/kg): 0.3
- Kp at 30 min ([8]; 20 mg/kg): 0.4
- concentration at 30 min ([8]; 10 mg/kg, read-out: brain): 1010 ng/g and 1.89 µM
- concentration at 30 min ([8]; 10 mg/kg, read-out: plasma): 3210 ng/mL and 6 µM
- concentration at 30 min ([8]; 20 mg/kg, read-out: brain): 1410 ng/g and 2.64 µM
- concentration at 30 min ([8]; 20 mg/kg, read-out: plasma): 3480 ng/mL and 6.5 µM

Structure (SMILES): OCCN1CCN(Cc2ccc(-c3cnc4[nH]cc(-c5cccc(Cl)c5)c4c3)cc2)CC1 [Compound 12k, 2-(4-(4-(3-(3-Chlorophenyl)-1H-pyrrolo[2,3-b]pyridin-5-yl)benzyl)piperazin-1-yl)ethan-1-ol]
- Oral bioavailability (% F) based on plasma measurements in IP vs. OG-treated animals [1]: 73%
- Brain AUC ([1]; IP): 11.57 µg·h/mL
- Brain mean Cmax ([1]; IP): 1162.23 µg/kg
- Plasma AUC ([1]; IP): 3.899 µg·h/mL
- brain Cmax ([1]; IP-injected): 1162 ng/g and 2.60 μM
- Brain AUC ([1]; OG): 8.429 µg·h/mL
- Brain mean Cmax ([1]; OG): 658.88 µg/kg
- Plasma AUC ([1]; OG): 2.785 µg·h/mL
- bioavailability ([1]; male, mouse, brain, po, read-out: Oral bioavailability (% F) by comparing brain measurements): 73%
- Kp at 3 h ([1]; male, mouse, ip): 3.91
- Kp at 3 h ([1]; male, mouse, oral, OG): 2.58
- Cmax ([1]; male, mouse, ip): 0.454 µg/mL
- Cmax ([1]; male, mouse, po, OG): 0.184 µg/mL
- remaining activity at 0.1 µM [2]: 96.3%
- remaining activity at 0.1 µM [3]: 108%
- remaining activity at 0.1 µM [4]: 97.1%
- remaining activity at 0.1 µM [5]: 91.1%
- remaining activity at 0.1 µM [6]: 93.5%
- remaining activity at 0.1 µM [7]: 87.5%
- Kp at 30 min ([8]; 10 mg/kg): 3.3
- Kp at 30 min ([8]; 20 mg/kg): 4
- concentration at 30 min ([8]; 10 mg/kg, read-out: brain): 1230 ng/g and 2.74 µM
- concentration at 30 min ([8]; 10 mg/kg, read-out: plasma): < 375 ng/mL and < 840 nM
- concentration at 30 min ([8]; 20 mg/kg, read-out: brain): 5180 ng/g and 11.6 µM
- concentration at 30 min ([8]; 20 mg/kg, read-out: plasma): 1290 ng/mL and 2.88 µM
